# Molecular target: Pseudomonas aeruginosa LpxC enzyme (Pseudomonas aeruginosa (strain ATCC 15692 / DSM 22644 / CIP 104116 / JCM 14847 / LMG 12228 / 1C / PRS 101 / PAO1), UniProt P47205)
# Assay: biochemical
# Assay type: biochemical
# Details: not given
row,SMILES,IC50 [nM]
1,"CNC(=O)C(C(=O)NO)N(C)C(=O)c1ccc(C#Cc2ccc(CN3C4CCC3CC4)cc2)cc1 (centres unmarked) [Compound 527, 2-{[(4-{[4-(7-azabicyclo[2.2.1]hept-7-ylmethyl)phenyl]ethynyl}phenyl)carbonyl](methyl)amino}-N-hydroxy-N′-methylpropanediamide]",10 to 100

# Same assay, conditions: class symbols A/B/C by IC50; Table 3; read-out: Enzyme inhibitory activity (inhibitory activity on Pseudomonas aeruginosa LpxC enzyme)
row,IC50 [nM],SMILES
1,< 10,"CCOCc1cc(C#Cc2ccc(C(=O)N(C)[C@@](C)(C(=O)NC)C(=O)NO)cc2)co1 [Compound 612, (2S)-2-[(4-{[5-(ethoxymethyl)furan-3-yl]ethynyl}benzoyl)(methyl)amino]-N-hydroxy-N′,2-dimethylpropanediamide]"
2,< 10,"CCO/N=C/c1cc(C#Cc2ccc(C(=O)N(C)C(C(=O)NC)C(=O)NO)cc2)co1 (centres unmarked) [Compound 506, 2-[{[4-({5-[(E)-(ethoxyimino)methyl]furan-3-yl}ethynyl)phenyl]carbonyl}(methyl)amino]-N-hydroxy-N′-methylpropanediamide]"

# Same assay, conditions: inhibitory activity on Pseudomonas aeruginosa LpxC enzyme, class symbols A/B/C; read-out: Enzyme inhibitory activity
row,IC50 [nM],SMILES
1,< 10,"CNC(=O)C(C(=O)NO)N(C)C(=O)c1ccc(-c2ccc(OCCCN3CC(C)OC(C)C3)cc2)cc1 (centres unmarked) [Compound 88, 2-[({4′-[3-(2,6-dimethylmorpholin-4-yl)propoxy]biphenyl-4-yl}carbonyl)(methyl)amino]-N-hydroxy-N′-methylpropanediamide]"
2,< 10,"CCN(C(=O)c1ccc(C#Cc2ccc(CN3CCCOCC3)cc2)cc1)C(C(=O)NC)C(=O)NO (centres unmarked) [Compound 336, 2-{ethyl[(4-{[4-(1,4-oxazepan-4-ylmethyl)phenyl]ethynyl}phenyl)carbonyl]amino}-N-hydroxy-N′-methylpropanediamide]"
3,< 10,"CNC(=O)[C@@](C)(C(=O)NO)N(C)C(=O)c1ccc(C#Cc2ccc(CS(C)(=O)=O)cc2)cc1 [Compound 422, (2S)-N-hydroxy-N′,2-dimethyl-2-(methyl {[4-({4-[(methylsulfonyl)methyl]phenyl}ethynyl)phenyl]carbonyl}amino)propanediamide]"
4,< 10,"CCOCc1ccc(-c2ccc(C(=O)N(C)C(C(=O)NC)C(=O)NO)cc2)cc1 (centres unmarked) [Compound 285, 2-[{[4′-(ethoxymethyl)biphenyl-4-yl]carbonyl}(methyl)amino]-N-hydroxy-N′-methylpropanediamide]"
5,10 to 100,"CNC(=O)C(C(=O)NO)N(C)C(=O)c1ccc(-c2ccc(S(C)(=O)=O)cc2)cc1 (centres unmarked) [Compound 352, N-hydroxy-N′-methyl-2-(methyl {[4′-(methylsulfonyl)biphenyl-4-yl]carbonyl}amino)propanediamide]"
6,< 10,"CNC(=O)C(C(=O)NO)N(C)C(=O)c1ccc(C#Cc2ccc(CNCC(C)(C)C)cc2)cc1 (centres unmarked) [Compound 329, 2-[({4-[(4-{[(2,2-dimethylpropyl)amino]methyl}phenyl)ethynyl]phenyl}carbonyl)(methyl)amino]-N-hydroxy-N′-methylpropanediamide]"
7,10 to 100,"CCN(C(=O)c1ccc(-c2ccccc2)cc1)C(C(=O)NC)C(=O)NO (centres unmarked) [Compound 159, 2-[(biphenyl-4-ylcarbonyl)(ethyl)amino]-N-hydroxy-N′-methylpropanediamide]"

# Second part, the compound before the results:
row,SMILES,IC50 [nM]
1,"CN(C(=O)c1ccc(-c2ccccc2)cc1)C(C(=O)NO)C(=O)NCc1ccccc1 (centres unmarked) [Compound 62, N-benzyl-2-[(biphenyl-4-ylcarbonyl)(methyl)amino]-N′-hydroxypropanediamide]",> 100
2,"NC(=O)C(NC(=O)c1ccc(-c2ccccc2)cc1)C(=O)NO (centres unmarked) [Compound 111, 2-[(biphenyl-4-ylcarbonyl)amino]-N-hydroxypropanediamide]",10 to 100
3,"CNC(=O)C(NC(=O)c1ccc(-c2ccc(NCCO)cc2)cc1)C(=O)NO (centres unmarked) [Compound 114, N-hydroxy-2-[({4′-[(2-hydroxyethyl)amino]biphenyl-4-yl}carbonyl)amino]-N′-methylpropanediamide]",10 to 100
4,"CNC(=O)C(C(=O)NO)N(C)C(=O)c1ccc(-c2cccs2)cc1 (centres unmarked) [Compound 308, N-hydroxy-N′-methyl-2-(methyl {[4-(thiophen-2-yl)phenyl]carbonyl}amino)propanediamide]",10 to 100
